Read-outs that look alike come from different tables or passages of the source.
Legend:
[1] = as compared to bacteriochlorophyll-a; Beems et al.; cited from earlier work
SMT-F tumors = assay: Photodynamic treatment of SMT-F tumors in mice with bchla, tumor response; format: in vivo, DBA2/HaD mice
Experimental: DBA2/HaD mice were transplanted with SMT-F tumors. When the subcutaneous tumors reached 4.5-5.5 mm in diameter, the mice, in groups of five, were injected intravenously with the bchla solution of Example 1 in doses of 5-30 mg/kg. At a time 1 hour-5 days later, the tumor, previously shaved and depiliated, plus a margin of 2-3 mm was exposed to radiation of a wavelength in the range 630-800 nm using a Spectraphysics argon dye laser with Exciton LDS751 dye, tunable over the 700-800 nm range or a diode laser--e. g., Spectra Diode emitting in the 750-850 nm range or a Xenon arc lamp filtered with an interference filter to pass 90% of the 700 nm light ±60 nm at dose rates of 75-150 mW/cm^2. When the Xenon system was used, mild hyperthermia resulted (42° C. at 160 mW/cm^2). It is not known whether this temperature rise acts synergistically with bchla as has been shown with HpD and its active fraction.
Tumor response is shown in the table of FIG. 1 for the seventh day after light treatment which indicates regression, and at a time point at least 30 days after light treatment, which would indicate cure, if there had been no regrowth.
As shown in FIG. 1 good response to bchla was obtained, for example, after 2 hours at 5 mg/kg in the 670-790 nm range and after 24 hours after injection with 10 mg/kg and irradiated at 680-780 nm. […]

[2] = Uptake, clearance and metabolism of bchla in tumor and liver (extraction, HPLC); format: in vivo, DBA/2 Ha mice; conditions: for concentration at 2 h: 2 h after injection; for concentration at 24 h: 24 h after injection
Experimental: Uptake and clearance of bchla in tumor and liver were measured by extraction of the tumor or liver tissue with 1:1MeOH:CH2 Cl2, followed by HPLC analysis.
bchla Uptake in DBA/2 Ha Mice in SMT-F Tumor

skin of the foot = assay: Cutaneous photosensitivity of the foot of treated mice versus tumor response (therapeutic ratio); format: in vivo
Experimental: One of the undesirable side effects of photodynamic therapy using certain compounds is cutaneous photosensitivity unrelated to the target biological substrate. Accordingly, the effect of the treatment on the photosensitivity of the foot of the treated mice was measured. The response of the foot was measured as erythema and/or edema (or loss of skin or further damage).

[3] = Chemical and in vivo stability of bchla
[4] = cited from earlier work

SMILES: CCC1c2cc3[nH]c(c(CC(=O)O)c4nc(cc5[nH]c(cc(n2)C1C)c(C(C)=O)c5C)C(C)C4CCC(=O)O)c(C(=O)O)c3C (stereo not shown) [bacteriochlorin-a]
- Water solubility [1]: enhanced water solubility

SMILES: CCC1C2=NC(=Cc3c(C(C)=O)c(C)c4[n]3[Mg][n]3c(c(C)c(C(=O)O)c3=C(CC(=O)O)C3=NC(=C4)C(C)C3CCC(=O)O)=C2)C1C (stereo not shown) [bacteriochloro-phyllin-a]
- Water solubility [1]: enhanced water solubility

SMILES: CCC1C2=NC(=Cc3c(C(C)=O)c(C)c4[n]3[Mg][n]3c(c(C)c5c3=C(C3=NC(=C4)C(C)C3CCC(=O)OCC=C(C)CCCC(C)CCCC(C)CCCC(C)C)C(C(=O)OC)C5=O)=C2)C1C (stereo not shown) [bchla, Bacteriochlorophyll-a]
- Tumor response (SMT-F tumors; 5 mg/kg i.v., 2 hours after injection, 670-790 nm range): good response
- Tumor response (SMT-F tumors; 10 mg/kg i.v., 24 hours after injection, irradiated at 680-780 nm): good response
- Levels in tumor and liver maintained ([2]; 24 or 48 hours): maintained for as long as 24 or 48 hours
- Levels in tumor and liver ([2]; after 2 hours): high levels
- Composition of material in tumor ([2]; at 24 hours): demetallized but still contains phytyl
- Composition of material in tumor ([2]; at 48 hours): mainly material without phytyl and without Mg
- Time of partial conversion to bacteriopheophytin ([2]; liver): 2 h
- concentration at 2 h ([2]; mouse, liver, 10 mg/kg, read-out: Tissue Level, Liver): 44000 ng/g
- concentration at 24 h ([2]; mouse, liver, 10 mg/kg, uncertain (*), conversion to other components, read-out: Tissue Level, Liver): 49400 ng/g
- concentration at 2 h ([2]; mouse, tumor, 10 mg/kg, read-out: Tissue Level, Tumor): 6140 ng/g
- concentration at 48 h ([2]; mouse, tumor, 10 mg/kg, 48 h after injection, uncertain (*), conversion to other components, read-out: Tissue Level, Tumor): 10700 ng/g
- concentration at 2 h ([2]; mouse, tumor, 20 mg/kg, read-out: Tissue Level, Tumor): 16000 ng/g
- concentration at 24 h ([2]; mouse, tumor, 20 mg/kg, uncertain (*), conversion to other components, read-out: Tissue Level, Tumor): 10000 to 19700 ng/g
- Time of partial conversion to bacteriopheophytin ([2]; tumor): ≥ 24 h
- Composition of material in tumor ([2]; two hours after injection): essentially only bchla with a small amount of material wherein the phytyl group has hydrolyzed
- Expected persistence of sensitivity to light (skin of the foot; expected from the mouse foot response): only a few days
- Sensitivity of the tumor and the skin of the foot as a function of time (skin of the foot; mice, FIG. 3): declined concomitantly
- Stability in vivo [3]: sufficiently stable in vivo
- Stability towards loss of magnesium ion ([4]; dilute acid): readily removed
- Stability towards oxidation ([4]; especially in the presence of light): readily oxidized

Source: US5171741A, “Bacteriochlorophyll-a derivatives useful in photodynamic therapy” (Health Research, Inc., priority 1989, dated 1992)
